SMILES strings stand for the structures.

Experiment [1] concerns secretion of interferon-beta from THP1 cells. The experiment is described as follows: IFN-β secretion in THP1 cell culture (5 h). The class given is cell-based. Particulars: Homo sapiens, THP-1, 5 h, compound at 30 μM, 30 uM cGAMP = 100%, read-out: % Effect at 30 μM relative to 2′3′-cGAMP. The procedure, abridged:
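IFN-β in supernatant measured by AlphaLISA after a 5 h, 37 °C incubation of THP1 cells with compound (10 concentrations, 30000 down to 1.5 nM, 0.3% DMSO) in low-serum RPMI. Values scaled between DMSO and 30 uM cGAMP controls; 4-parameter curve fit yields EC50.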

The next experiment addresses T1, full-length HAQ STING (Homo sapiens, UniProt Q86WV6, G230A/H232R/R293Q/R71H).
T1 construct: AviTag (after GG linker) (C); HRV3C cleavage site (after GS linker) (C); HIS8 (C); made in house; host or cells: Trichoplusia ni (Hi-Five) insect cells infected with baculovirus (virus generated and amplified in Sf21 cells); used as a washed membrane preparation
The experiment is described as follows: 3H-cGAMP filtration binding assay (HAQ STING). Particulars: competition with tritiated cGAMP, HAQ STING membrane. A digest of the protocol: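 Hi-Five (T. ni) membranes overexpressing the STING variant (2.2 ug/ml working) preincubated with compound 60 min at RT in PBS, then [3H]cGAMP (8 nM working stock) added for 60 min at RT. Bound radioactivity captured on GF/B filters and counted by scintillation; EC50 from 4-parameter fit of control-normalized activity.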

A further experiment concerns the target T2, full-length WT STING (Homo sapiens, UniProt Q86WV6, H232R).
T2 construct: AviTag (after gg linker) (C); HRV3C cleavage site (after gs linker) (C); HIS8 (C); made in house; host or cells: Trichoplusia ni (Hi-Five) insect cells infected with baculovirus (virus generated and amplified in Sf21 cells); used as a washed membrane preparation
The experiment is described as follows: 3H-cGAMP filtration binding assay (WT STING). Particulars: competition with tritiated cGAMP, WT STING membrane. The procedure, abridged: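 EC50 values come from 4-parameter fits of remaining filter-bound tritium versus log concentration (10-point, 1:3 dilution). Insect-cell membranes carrying full-length WT STING were incubated 60 min at RT with compound and tritiated cGAMP (16 nM working stock) before filtration.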

T2 sequence (Q86WV6 with tags, fused parts or gaps H232R): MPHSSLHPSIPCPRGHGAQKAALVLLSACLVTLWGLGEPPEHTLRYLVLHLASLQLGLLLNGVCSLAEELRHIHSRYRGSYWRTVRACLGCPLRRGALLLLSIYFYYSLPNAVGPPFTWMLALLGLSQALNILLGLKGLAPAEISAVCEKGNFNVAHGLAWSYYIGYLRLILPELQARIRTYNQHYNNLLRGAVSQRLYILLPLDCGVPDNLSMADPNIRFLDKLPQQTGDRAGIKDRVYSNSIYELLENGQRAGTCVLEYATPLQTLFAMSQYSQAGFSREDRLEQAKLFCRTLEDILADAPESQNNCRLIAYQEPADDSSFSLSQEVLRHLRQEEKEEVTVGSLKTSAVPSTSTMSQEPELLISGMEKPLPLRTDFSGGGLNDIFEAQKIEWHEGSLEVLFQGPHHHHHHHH
T1 sequence (Q86WV6 with tags, fused parts or gaps R71H/G230A/H232R/R293Q): as the sequence (Q86WV6 with tags, fused parts or gaps H232R) above, with R71H, G230A, R293Q counted along it

In the case of `COc1cc2sc(C(=O)C[C@H](C)C(=O)O)cc2cc1OCCOc1ccc2cc(C(=O)CCC(=O)O)sc2c1` [Example 56, (S)-4-(5-(2-((2-(3-carboxypropanoyl)benzo[b]thiophen-6-yl)oxy)ethoxy)-6-methoxybenzo[b]thiophen-2-yl)-2-methyl-4-oxobutanoic acid], the activation at 30 µM in experiment [1] was found to be 30%. Also, the EC50 is 1070 nM at full-length HAQ STING and 3130 nM on full-length WT STING.

Turning to `COc1cc2sc(C(=O)C[C@H](C)C(=O)O)cc2cc1OCCCOc1nc2cc(C(=O)C[C@H](C)C(=O)O)sc2cc1OC` [Example 58, (S)-4-(5-(3-((2-((S)-3-carboxybutanoyl)-6-methoxybenzo[b]thiophen-5-yl)oxy)propoxy)-6-methoxythieno[3,2-b]pyridin-2-yl)-2-methyl-4-oxobutanoic acid], the activation at 30 µM in experiment [1] was found to be 46%. For the same molecule, the EC50 at full-length HAQ STING and at full-length WT STING was 1 nM each time.

`COc1cc2sc(C(=O)C[C@H](C)C(=O)O)cc2nc1OCCCOc1c(OC)cc2sc(C(=O)CC(C)(C)C(=O)O)cc2c1F` [Example 59, (S)-4-(5-(3-((2-(3-carboxybutanoyl)-6-methoxythieno[3,2-b]pyridin-5-yl)oxy)propoxy)-4-fluoro-6-methoxybenzo[b]thiophen-2-yl)-2,2-dimethyl-4-oxobutanoic acid]: in experiment [1], the activation at 30 µM was found to be 18%. Also, the EC50 at full-length HAQ STING worked out at 1 nM; at full-length WT STING it was 2 nM.

With `COc1cc2sc(C(=O)C[C@H](C)C(=O)O)cc2cc1CCNc1cc2cc(C(=O)C[C@H](C)C(=O)O)sc2cc1OC` [Example 60, (2S)-4-{5-[2-({2-[(3S)-3-carboxybutanoyl]-6-methoxy-1-benzothiophen-5-yl}amino)ethyl]-6-methoxy-1-benzothiophen-2-yl}-2-methyl-4-oxobutanoic acid], the activation at 30 µM in experiment [1] was 106%. Besides, the results for the EC50 on full-length HAQ STING and at full-length WT STING were 19 nM and 67 nM, respectively.

As for `COc1cc2sc(C(=O)C[C@H](C)C(=O)O)cc2cc1CCCNc1cc2cc(C(=O)C[C@H](C)C(=O)O)sc2cc1OC` [Example 61, (S)-4-(5-(3-((2-((S)-3-carboxybutanoyl)-6-methoxybenzo[b]thiophen-5-yl)amino)propyl)-6-methoxybenzo[b]thiophen-2-yl)-2-methyl-4-oxobutanoic acid], in experiment [1], the activation at 30 µM stood at 62%. In addition, the EC50 is 33 nM at full-length HAQ STING and 327 nM on full-length WT STING.

Consider `COc1cc2sc(C(=O)CCC(=O)O)cc2c(F)c1OCCCOc1c(OC)cc2sc(C(=O)CCC(=O)O)cc2c1F` [Example 62, 4,4′-((propane-1,3-diylbis(oxy))bis(4-fluoro-6-methoxybenzo[b]thiophene-5,2-diyl))bis(4-oxobutanoic acid)], for which the activation at 30 µM in experiment [1] stood at 106%. Moreover, the EC50 on full-length HAQ STING and at full-length WT STING was 2 nM each time.

Consider `COc1cc2sc(C(=O)CCC(=O)O)cc2c(F)c1OCCOc1c(OC)cc2sc(C(=O)C[C@H](C)C(=O)O)cc2c1F` [Example 63, (S)-4-(5-(2-((2-(3-carboxypropanoyl)-4-fluoro-6-methoxybenzo[b]thiophen-5-yl)oxy)ethoxy)-4-fluoro-6-methoxybenzo[b]thiophen-2-yl)-2-methyl-4-oxobutanoic acid], for which, in experiment [1], the activation at 30 µM came to 62%. Besides, the EC50 at full-length HAQ STING turned out to be 1 nM; on full-length WT STING, 4 nM.

For the molecule `COc1cc2sc(C(=O)CCC(=O)O)cc2c(F)c1OCCCOc1c(OC)cc2sc(C(=O)C[C@H](C)C(=O)O)cc2c1F` [Example 64, (S)-4-(5-(3-((2-(3-carboxypropanoyl)-4-fluoro-6-methoxybenzo[b]thiophen-5-yl)oxy)propoxy)-4-fluoro-6-methoxybenzo[b]thiophen-2-yl)-2-methyl-4-oxobutanoic acid], in experiment [1], the activation at 30 µM was 58%. Further, the EC50 at full-length HAQ STING was found to be 2 nM; at full-length WT STING, 4 nM.

Turning to `COc1cc2sc(C(=O)CCC(=O)O)cc2c(F)c1OCCOc1c(OC)cc2sc(C(=O)CCC(=O)O)cc2c1F` [Example 65, 4,4′-((ethane-1,2-diylbis(oxy))bis(4-fluoro-6-methoxybenzo[b]thiophene-5,2-diyl))bis(4-oxobutanoic acid)], the activation at 30 µM in experiment [1] was found to be 105%. Also, the EC50 at full-length HAQ STING and at full-length WT STING was 1 nM each time.

For `COc1cc2sc(C(=O)C[C@@H](C)C(=O)O)cc2cc1OCCOc1c(OC)cc2sc(C(=O)C[C@H](C)C(=O)O)cc2c1F` [Example 66, (R)-4-(5-(2-((2-((S)-3-carboxybutanoyl)-4-fluoro-6-methoxybenzo[b]thiophen-5-yl)oxy)ethoxy)-6-methoxybenzo [b]thiophen-2-yl)-2-methyl-4-oxobutanoic acid], the activation at 30 µM in experiment [1] came to 103%. In addition, the EC50 amounted to 4 nM at full-length HAQ STING and 20 nM at full-length WT STING.

Regarding `COc1cc2sc(C(=O)C[C@H](C)C(=O)O)cc2cc1OCCOc1c(OC)cc2sc(C(=O)C[C@H](C)C(=O)O)cc2c1F` [Example 67, (S)-4-(5-(2-((2-((S)-3-carboxybutanoyl)-4-fluoro-6-methoxybenzo[b]thiophen-5-yl)oxy)ethoxy)-6-methoxybenzo[b]thiophen-2-yl)-2-methyl-4-oxobutanoic acid], the activation at 30 µM in experiment [1] came to 92%. In addition, the EC50 was found to be 40 nM at full-length HAQ STING and 45 nM at full-length WT STING.

For `COc1cc2sc(C(=O)C[C@H](C)C(=O)O)cc2cc1OCCCOc1c(OC)cc2sc(C(=O)C[C@H](C)C(=O)O)cc2c1F` [Example 69, (S)-4-(5-(3-((2-((S)-3-carboxybutanoyl)-4-fluoro-6-methoxybenzo[b]thiophen-5-yl)oxy)propoxy)-6-methoxybenzo[b]thiophen-2-yl)-2-methyl-4-oxobutanoic acid], the activation at 30 µM in experiment [1] came out at 46%. Moreover, the EC50 was 1 nM at full-length HAQ STING and 2 nM at full-length WT STING.

Turning to `COc1cc2cc(C(=O)C[C@H](C)C(=O)O)sc2cc1OCCCOc1c(OC)cc2sc(C(=O)C[C@H](C)C(=O)O)cc2c1F` [Example 70, (S)-4-(6-(3-((2-((S)-3-carboxybutanoyl)-4-fluoro-6-methoxybenzo[b]thiophen-5-yl)oxy)propoxy)-5-methoxybenzo[b]thiophen-2-yl)-2-methyl-4-oxobutanoic acid], the activation at 30 µM in experiment [1] was determined as 47%. The EC50 at full-length HAQ STING and on full-length WT STING was 1 nM in each case.

Turning to `COc1cc2sc(C(=O)C[C@H](C)C(=O)O)cc2cc1OCCCOc1c(OC)cc2sc(C(=O)CC(C)(C)C(=O)O)cc2c1F` [Example 71, (S)-4-(5-(3-((2-(3-carboxybutanoyl)-6-methoxybenzo[b]thiophen-5-yl)oxy)propoxy)-4-fluoro-6-methoxybenzo[b]thiophen-2-yl)-2,2-dimethyl-4-oxobutanoic acid], the activation at 30 µM in experiment [1] turned out to be 15%. The EC50 amounted to 3 nM at full-length HAQ STING and 2 nM at full-length WT STING.

As for `COc1cc2sc(C(=O)C[C@H](C)C(=O)O)cc2cc1OCCCOc1c(OC)cc2sc(C(=O)CCC(=O)O)cc2c1F` [Example 72, (S)-4-(5-(3-((2-(3-carboxypropanoyl)-4-fluoro-6-methoxybenzo[b]thiophen-5-yl)oxy)propoxy)-6-methoxybenzo[b]thiophen-2-yl)-2-methyl-4-oxobutanoic acid], the activation at 30 µM in experiment [1] was determined as 77%. For the same molecule, the EC50 was 1 nM on full-length HAQ STING and 2 nM on full-length WT STING.

On to `COc1cc2cc(C(=O)C[C@H](C)C(=O)O)sc2cc1OCCCOc1c(OC)cc2sc(C(=O)CCC(=O)O)cc2c1F` [Example 73, (S)-4-(6-(3-((2-(3-carboxypropanoyl)-4-fluoro-6-methoxybenzo[b]thiophen-5-yl)oxy)propoxy)-5-methoxybenzo[b]thiophen-2-yl)-2-methyl-4-oxobutanoic acid], for which, in experiment [1], the activation at 30 µM was 67%. For the same molecule, the EC50 on full-length HAQ STING was 1 nM; at full-length WT STING, 4 nM.

As for `COc1cc2sc(C(=O)C[C@H](C)C(=O)O)cc2cc1NCCCOc1cc2cc(C(=O)C[C@H](C)C(=O)O)sc2cc1OC` [Example 74, (S)-4-(5-(3-((2-((S)-3-carboxybutanoyl)-6-methoxybenzo[b]thiophen-5-yl)amino)propoxy)-6-methoxybenzo[b]thiophen-2-yl)-2-methyl-4-oxobutanoic acid], in experiment [1], the activation at 30 µM turned out to be 16%. Also, the EC50 at full-length HAQ STING came out at 4 nM; at full-length WT STING it was 6 nM.

For the molecule `COc1cc2sc(C(=O)CCC(=O)O)cc2cc1CCCNc1nc2cc(C(=O)CCC(=O)O)sc2cc1OC` [Example 75, 4-(5-((3-(2-(3-carboxypropanoyl)-6-methoxybenzo[b]thiophen-5-yl)propyl)amino)-6-methoxythieno[3,2-b]pyridin-2-yl)-4-oxobutanoic acid], the activation at 30 µM in experiment [1] is 63%. For the same molecule, the values for the EC50 at full-length HAQ STING and at full-length WT STING were 139 nM and 691 nM, respectively.

The values are drawn from patent US10793557B2, “Sting agonist compounds” (Merck Sharp & Dohme Corp., priority 2018, dated 2020).
